In patent publication US6083932A, “Pharmaceutical compositions derived from ginseng and methods of treatment using same” (CV Technologies Inc., priority 1998, dated 2000):

Tests used:
monoamine oxidase-A = target: T1, monoamine oxidase-A (Rattus norvegicus, UniProt P21396); test: in vitro monoamine oxidase-A inhibiting activity (radiochemical, 5-hydroxytryptamine substrate); format: biochemical; conditions: read-out: inhibition of monoamine oxidase A activity
T1 construct: homogenates of rat brain; from tissue; host or cells: rat brain homogenate
T1 sequence (P21396 1-526): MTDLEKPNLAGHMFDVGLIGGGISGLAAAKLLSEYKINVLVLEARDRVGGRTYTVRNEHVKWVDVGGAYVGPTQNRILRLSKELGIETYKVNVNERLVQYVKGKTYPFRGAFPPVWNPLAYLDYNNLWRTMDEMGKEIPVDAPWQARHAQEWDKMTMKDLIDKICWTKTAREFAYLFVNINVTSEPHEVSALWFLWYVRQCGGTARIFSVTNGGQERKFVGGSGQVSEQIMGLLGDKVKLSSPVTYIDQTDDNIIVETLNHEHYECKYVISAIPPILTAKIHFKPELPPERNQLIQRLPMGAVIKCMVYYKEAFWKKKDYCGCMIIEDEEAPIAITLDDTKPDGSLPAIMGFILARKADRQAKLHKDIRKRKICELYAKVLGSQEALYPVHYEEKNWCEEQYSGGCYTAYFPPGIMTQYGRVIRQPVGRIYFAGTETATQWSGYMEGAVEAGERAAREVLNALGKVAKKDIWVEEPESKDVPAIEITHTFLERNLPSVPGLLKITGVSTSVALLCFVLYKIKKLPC
Experimental: (§1) Example 1 is a study of the effects of several extracts of HT1001, PQ4, PQ5, PQ6 and pure ginsenosides, on monoamine oxidase A (MAO A) and monoamine oxidase B (MAO B) activity in vitro.
(§2) HT-1001, related extracts and pure ginsenosides were evaluated for in vitro monoamine oxidase-A and monoamine oxidase-B inhibiting activity using the radiochemical procedure of Lyles and Callingham, Biochem. Pharmacol. 31: 1417-1424 (1982), employing either radiolabelled 5-hydroxytryptamine or β-phenylethylamine as substrates for monoamine oxidase-A (MAO-A) or monoamine oxidase-B (MAO-B) respectively. Various concentrations of the compounds of interest were incubated in appropriately diluted homogenates of rat brain in a 0.2 M potassium phosphate buffer. After a 15 minute preincubation period the reaction was initiated by the addition of substrate. Incubations proceded at 37° C. for 10 minutes. Incubation was terminated by the addition of acid and the radiolabelled products (5-hydroxyindoleacetic acid, 5-hydroxyindoleacetaldehyde or phenylacetic acid, phenylacetaldehyde) were extracted and quantified by liquid scintillation counting procedures. Incubations were done in triplicate and incubations including pheneizine a known MAO inhibitor were included as controls and for comparison. The percent inhibition of monoamine oxidase-A or monoamine oxidase-B activity compared to controls containing no experimental material was calculated.

monoamine oxidase-B = target: T2, monoamine oxidase-B (Rattus norvegicus, UniProt P19643); test: in vitro monoamine oxidase-B inhibiting activity (radiochemical, β-phenylethylamine substrate); format: biochemical; conditions: read-out: inhibition of monoamine oxidase B activity
T2 construct: homogenates of rat brain; from tissue; host or cells: rat brain homogenate
T2 sequence (P19643 1-520): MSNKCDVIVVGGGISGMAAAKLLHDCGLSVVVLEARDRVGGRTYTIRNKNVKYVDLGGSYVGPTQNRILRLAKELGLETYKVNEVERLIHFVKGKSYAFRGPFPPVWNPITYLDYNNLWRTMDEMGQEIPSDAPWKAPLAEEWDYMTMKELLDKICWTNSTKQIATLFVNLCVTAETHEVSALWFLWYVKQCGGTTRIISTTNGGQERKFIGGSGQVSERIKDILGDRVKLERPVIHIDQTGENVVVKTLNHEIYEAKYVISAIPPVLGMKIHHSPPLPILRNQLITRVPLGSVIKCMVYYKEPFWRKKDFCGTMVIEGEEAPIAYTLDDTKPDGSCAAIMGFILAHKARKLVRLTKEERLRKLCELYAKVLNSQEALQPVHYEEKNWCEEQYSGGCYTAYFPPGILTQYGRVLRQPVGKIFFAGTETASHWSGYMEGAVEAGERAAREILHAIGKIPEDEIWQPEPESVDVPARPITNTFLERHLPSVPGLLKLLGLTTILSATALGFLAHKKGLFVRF
Experimental: as §1, §2

PC12 cells = test: neurite outgrowth in PC12 cells; format: cell-based; conditions: seven days after treatment
Experimental: A study of the neurotrophic effects of HT1001 and some pure ginsenosides was conducted. A new mechanism of action for HT1001 was shown, which is the stimulation of neurite outgrowth in a PC12 cell line. […] The beneficial effects (prevention/treatment) of HT-1001 may apply to degenerative diseases such as senile dementia, Parkinson's disease, Alzheimer's disease, multi-infarct dementia, etc. Alzheimer's disease (AD) is associated with degeneration of cholinergic nerve tracts including projections from the basal forebrain to the cortex and hippocampus. The PC12 (pheochromocytoma) cell line is one of the models for the study of the development of these nerve tracts. The cell line is phenotypically a chromaffin cell line, but can be induced to express adrenergic and cholinergic markers as well. This model has the advantages that (1) it is an immortalized cell line, (2) it is sensitive to, but not dependent upon, NGF for survival, and (3) it shares many properties in common with the central cholinergic neurons of the basal forebrain. It has been noted that PC12 cells are not sensitive to all of the trophic factors that central cholinergic neurons respond to, whereas central cholinergic neurons respond to all trophic factors that PC12 cells respond to. […] The cellular responses to Nerve Growth Factor (NGF) and samples were determined by counting the number of cells containing processes in PC12 cells. […] The cells and neurites were counted as follows: The cells with circular or global shape and no neurite outgrowth were scored as 0 (S0). […] Cells with more than two small neurites on the cell bodies were scored as S2. Cells with one or two neurites with a length of at least two times diameter as their body were scored as S3. Cells with more than two long neurites were scored as S4. The neurite index was calculated as below: Neurite index (In)=total neurite Score (ΣS)/total cell number (.[…] is the cell number of every cell field. The test samples included: […]

rats = test: Morris water maze, learning and memory, scopolamine induced amnesia; format: in vivo, rat; conditions: for mean latency: scopolamine 2 mg/kg, all scopolamine treated animals; for memory effect of scopolamine treatment: 2 mg/kg
Text: First, we studied the effects of HT1001 on Learning and Memory. […] As HT1001 is a mixture of ginsenosides, it may not have the same properties as pure Rb1. […] Rats are required to learn the location of a hidden platform in a swimming pool. […] The effects of HT1001 on memory can also be examined in scopolamine induced amnesia. If HT1001 enhances memory it should protect against memory loss in scopolamine treated animals.
The Morris water maze task was based on methods previously described (Pitsikas et al, Pharmacol. Biochem. Behav. 47: 95-99 (1994); Smith et al, Psychopharmacol. 114: 651-656 (1994)). The apparatatus consisted of a circular pool (1.7 m diameter, 35 cm deep) which contained water (30° C.) made cloudy by the presence of powdered milk. A moveable platform (10 cm×11.5 cm and 20 cm tall) was placed in the pool such that it was submerged by 3 cm and could not be seen. Each trial involved placing the rat in the pool in one of the four equally spaced quadrants in which the pool was divided. Visual cues consisting of large posters were placed on the walls of the room in which the experiment was conducted, and the experimenters maintained established positions throughout each experiment. During the learning period, animals were allowed to swim freely until they found the escape platform. […] During the initial learning period, all rats were tested sequentially and were given 4 trials per day during which the escape platform was located in a fixed position in the center of the pool. During the scopolamine trials rats were tested sequentially three times on cach day with the three trials being performed between 30 and 45 minutes following scopolamine or saline injection, The latency to reach the platform was recorded.
Experimental Design for Learning and Memory Testing
The specific aim of the experiment was to test if HT1001 affected the acquisition, retention and/or recall of a new task in the presence of scopolamine-induced amnesia. Rats were initially divided into two groups and fed either water (0.5 ml) or HT1001 (200 mg/kg/day in 0.5 ml water by gavage) for the duration of the experiment. Eight days after the initiation of water or HT1001 administration, rats were given the task of learning the position of a platform concealed at the center of the Morris water maze. The rats were placed in the pool 4 times per day for 5 days and the time required to find the platform was recorded (maximum duration 300 seconds). Latency became shorter as the rats learned the task. On day 14, the two groups of rats were further subdivided into four groups. […] In each instance the time to locate the platform (latency) was recorded. […]

noradrenaline uptake = noradrenaline uptake in hypothalamus slices; format: biochemical; conditions: 10^-5 M
Text: (§3) We have also investigated the effects of HT1001 on noradrenaline, dopamine and 5-hydroxytryptamine reuptake and monamine oxidase A and B activity in vitro. When compared to amphetamine, HT1001 has little effect on noradrenaline or dopamine uptake. For example, at 10^-4 M (assuming a molecular weight of 900 for HT1001) HT1001 inhibits noradrenaline uptake in hypothalamus slices 3.0% whereas amphetamine at 10^-5 M inhibits uptake by 83%. […] None of these effects are dramatic.

dopamine uptake = dopamine uptake in striatal slices; format: biochemical; conditions: 10^-5 M
Text: as §3

[1] = tested on: 5-hydroxytryptamine uptake; test: 5-hydroxytryptamine uptake in striatal slices; format: biochemical; conditions: 10^-5 M
Text: as §3

[2] = tested on: choline uptake into synaptosomes, whole brain; conditions: Benishin 1992 / previously demonstrated; cited from earlier work
[3] = tested on: choline uptake into synaptosomes, whole brain; test: choline uptake into synaptosomes from rat whole brain; format: biochemical; conditions: various doses; n=10
Text: We also studied the effects of HT1001 on choline uptake in synaptosomes.
We have examined choline uptake in synaptosome preparations from whole brain and hippocampus in the presence of Rb1, HT1001 and HC3.
The magnitude of these effects are consistent with the previous studies.

NNCCc1ccccc1 [phenylzine]
inhibition at 100 µM (monoamine oxidase-A): 97.5%
inhibition at 100 µM (monoamine oxidase-B): 93%

Nerve Growth Factor [NGF]
neurite outgrowth (FIG. 29) (PC12 cells): increased neurite outgrowth in PC12 cells in a dose-dependent manner

CN1[C@@H]2C[C@@H](OC(=O)[C@H](CO)c3ccccc3)C[C@H]1[C@@H]1O[C@@H]12 [scopolamine]
mean latency (rats; day 14, third trial): 39.5 ± 8.2 s
memory effect of scopolamine treatment (rats; day 15): produces a memory deficit
mean latency (rats; day 16, third trial): 18.4 ± 2.9 s
memory effect of scopolamine treatment (rats; day 17): produces a memory deficit

CC(N)Cc1ccccc1 (stereo not drawn) [amphetamine]
inhibition of noradrenaline uptake (noradrenaline uptake): 83%
inhibition of dopamine uptake (dopamine uptake): 92.4%
inhibition of 5-hydroxytryptamine uptake [1]: 94%

C[N+]1(C)CCOC(O)(c2ccc(-c3ccc(C4(O)C[N+](C)(C)CCO4)cc3)cc2)C1 (stereo not drawn) [HC3]
choline uptake (literature) [2]: inhibit choline uptake
choline uptake by rat brain synaptosomes (FIG. 28, in words) [3]: inhibits choline uptake
